# Results published in patent publication US9765061B2, “Trail enhancers for the selective killing of cancer cells” (The Scripps Research Institute, priority 2013, dated 2017).
# How the values were obtained:
# [1] = test system: TRAIL-treated lung cancer cells; assay: Toxicity against TRAIL-treated lung cancer cells; format: cell-based
# Description: Considering the potential inherent pharmacokinetic liabilities associated with C12, a small series of compound (C12) analogues was tested against bone marrow-derived macrophages and TRAIL-treated lung cancer cells.
# Cancer and normal cell culture. Lung cancer cell line A549 and colon cancer cell line HT29 were purchased from ATCC. Breast cancer cell line MDA-MB-468 was received from J. C. Reed (The Burnham Institute, La Jolla, Calif.). Cell lines were maintained in growth medium (GM): DMEM medium (4.5 g/l glucose) supplemented with 10% FBS (HyClone, Logan, Utah), L-glutamine, penicillin/streptomycin and nonessential ammo acids (Invitrogen, Carlsbad, Calif.). […]
# (§1) Cytotoxicity was determined by using the XTT-based toxicology assay kit (Sigma, St. Louis, Miss.) in accordance with the manufacturer's instructions. For some experiments, to confirm the apoptotic nature of toxicity, cells were analyzed using protocols and instructions of the Annexin V-FITC apoptosis detection kit (Biovision, Mountain View, Calif.). In addition, caspase 3, 8 and 9 activities were determined by colorimetric assays (R&D System), and the data are expressed as fold increases compared to the values of untreated or control-treated cells (n=5).
# [2] = test system: cancerous cells; assay: Sensitization of cancerous cells to TRAIL-mediated apoptosis (SAR panel); format: cell-based; conditions: a number of cancerous cells
# Source text: Since (C12) is a prototypic member of the 3-oxo-AHL family, the structure-activity-relation (SAR) investigations were warranted to determine generic structural features of AHL, which are required for a cancer-stop and cancer preventing activity as well as for activation of the UPR. To address this questions, a set of AHLs and their analogs were synthesized (see List of AHLs and analogs), and the biological activity of ail compounds were examined on a panel of cancerous and normal cells. The prototypic examples of biochemical data for the selected analogs are shown in FIG. 9 and FIG. 10, whereas Table 2 summarizes the SAR studies for all compounds.
# (§2) Cell stimulation. In all experiments, BMDM were stimulated with LPS (100 ng/ml), AHL (10-25 μM; usually BMDM and primary macrophages were stimulated by 25 μM of C12) or their combination as indicated in the figure legends. If not indicated, cancer and normal cells were stimulated with 40 ng/ml of TNFα, 20 ng/ml TRAIL and 10 μM (in case of cancer cells) or 25 μM (in case of normal cells) of AHL.
# [3] = test system: bone marrow-derived macrophages (BMDM); assay: Responses of bone marrow-derived macrophages to AHLs (toxicity, Western blot); format: cell-based, mouse
# Description: FIG. 13. AHL-mediated inhibition of inflammation-induced NF-κB signaling is sufficient for rendering tumors susceptible to TRAIL-induced apoptosis. a) Western blot analysis of PARP cleavage in cancer cells stimulated for 3 h with TRAIL or its combination with different AHLs as indicated, b) Western blot analysis of PARP cleavage as well as phosphorylated forms of eIF2α and p38 in extracts from bone marrow-derived macrophages (BMDM) stimulated with (C12) or (3-N2), i.e., (S)-(3-N2), as indicated, c) Western blot analysis of PARP cleavage and temporal profiles of IκBα expression in BMDM extracts prepared after treatment with LPS or its combination with (C12) or (3-N2). d) Inhibitory effect of (C12) and its derivatives on LPS-induced TNF production in BMDM. e) Lung cancer cells were exposed to (3-N2) (10 μM), TRAIL (0.5 ng/ml), TNF (20 ng/ml) or their combinations as indicated. After 2 h, cell lysates were prepared and analyzed by Western blot for PARP cleavage, IκBα and actin.
# Mice, bone marrow-derived macrophages and other cell culture, C57BL/6 mice were purchased from the Jackson Laboratory (Bar Harbor, Me.). Bone marrow-derived macrophages (BMDM) and murine embryonic fibroblasts (MEF) were prepared by using standard protocols that were approved by the TSRI Animal Care and Use Committee. L929/NCTC clone 929 (connective tissue, mouse) cell lines were purchased from ATCC (Manassas, Va.). MEFs and L929 cell line were maintained in GM (see above). BMDM were cultured in 70% GM and 30% L929 conditioned medium. In general, cells (˜60-70% confluence) were incubated in fresh medium for 12-14 h before stimulation.
# Antibodies and Western blot analysis. Anti-eIF2α, phospho-eIF2α[…](p-eIF2α), p38, p-p38 (Thr180/Tyr132), p-RelA (Ser536), p-I κB ? 32/36), PARP 20 antibodies were purchased from Cell Signaling; anti-RelA, I κB α, IκBβ were from Santa Cruz Biotechnology. Cellular extracts were prepared and analyzed by Western blot assay as previously described.^E3
# as §2
# [4] = test system: primary human hepatocytes; assay: Viability and apoptosis of primary human hepatocytes from normal donors; format: cell-based
# Description: FIG. 8: Safety and pro-apoptotic. activity of (C12). Cells were incubated with TRAIL, (C12), […] (Bor) or a combination of TRAIL and (C12) or Bor as indicated, and cell viability (top panels) or the cleavage of PARP (bottom panels) was determined. (A) Lung cancer cell line A549. (B) Primary human hepatocytes from normal donor.
# Therefore, to assess a potential utility of C12 for anti-cancer therapy, we compared the effects of these two compounds—(C12) and bartezomid (Bor)—on TRAIL-mediated apoptosis in cancerous A549 cells and primary human hepatocytes.
# Cancer and normal cell culture. Lung cancer cell line A549 and colon cancer cell line HT29 were purchased from ATCC. Breast cancer cell line MDA-MB-468 was received from J. C. Reed (The Burnham Institute, La Jolla, Calif.). Cell lines were maintained in growth medium (GM): DMEM medium (4.5 g/l glucose) supplemented with 10% FBS (HyClone, Logan, Utah), L-glutamine, penicillin/streptomycin and nonessential ammo acids (Invitrogen, Carlsbad, Calif.). Normal human bronchial epithelial (NHBE) cells and normal human mammary epithelial (NHME) cells were obtained from Cambrex (East Rutherford, N.J.) and cultured as recommended by the manufacturer. Normal human colon smooth muscle cells were obtained from ScienCell Research Lab (San Diego, Calif.) and cultured as recommended by the manufacturer. Primary cultures of human hepatocytes (freshly plated; not cryopreserved) and culture medium were obtained from Celsis In Vitro Technologies (Baltimore, Md.). Upon receipt of the cells, the medium was gently aspirated from each well and replenished with InVitroGRO HI medium supplemented with Torpedo Antibiotic Mix (Celsis), and the plates were kept in a 5% CO2, at 37° C. in an incubator at saturating humidity. After 2-4 h, cells were stimulated as described in the text and FIG. legends.
# as §1
# [5] = test system: A549 cell line; assay: Viability of A549 cells, XTT-based assay, with or without TRAIL; format: cell-based, human
# Description: FIG. 4: C12 sensitizes long cancer cell line A549 to TRAIL. (A) Viability of cells was examined after 24-hour incubation in media containing TRAIL (50 ng/ml), compound (C12) (1 μM), compound (C12R) (25 μM) or the indicated combination of TRAIL (T) with (C12) or (C12R). The chemical structures of (C12) and its stereoisomer (C12R) are shown on the right. (B) Viability of cells was examined after 24-hour incubation in media, containing TRAIL (50 ng/ml) and the indicated doses of C12. Viable cells remaining after the treatment were determined as a function of mitochondrial activity of living cells according to XTT-based toxicology assay kit (Sigma) and are shown as a percentage of viable untreated cells.
# To test this hypothesis, we examined the effect of C12 in vitro on the activity of TRAIL against A549 cell line derived from a cancer sample of the human lung.
# as §1
# [6] = test system: sXBP1 (UPR); assay: RT-PCR assay of spliced XBP1 mRNA (sXBP1) in macrophages; format: cell-based, mouse; conditions: FIG. 1D and 1E
# Source text: FIG. 1: C12 induces the UPR in mammalian cells. (A and B). Comparison of the macrophage responsiveness to P. aeruginosa (P.a.), S. typhimurium (S.t), and S. aureus (S.a.). RT-PCR assay of XBP1 (A) and Western blot analysis (B) of p38, its phosphorylated form (p-p38) as well as phosphorylated forms of PERK (p-PERK) and eIF2α (p-eIF2α) in cell extracts after treatment with bacteria are shown. (C) Macrophages were stimulated with P. aeruginosa wild type (wt) or lasI mutant (ΔlasI), and cell extracts (total RNA or total protein) were prepared and analyzed as in (A and B). […] (F) Total RNA was prepared from lung of mice after inoculation of vehicle (-) or (C12) and analyzed in (D). […]
# Among key biochemical signatures of the multicomponent ER stress pathway, known as the unfolded protein response (UPR), are the phosphorylation of the α-subunit of eukaryotic translation initiation factor-2 (eIF2α) and activation of the transcription factor XBP1/Hac1 (X-box binding protein-1 in metazoans and homologous to ATF/CREB in yeast, respectively) ^11. […] To initiate our studies, we exposed bone marrow-derived macrophages (BMDM) to these bacteria, and macrophage responsiveness was analyzed for biochemical markers of the UPR and the phosphorylation of the mitogen-activated protein kinase p38, as a common marker of TLR pathways. […]
# [7] = test system: cancer and normal cells; assay: XTT-based viability of cancer and normal cells grown 18 h (FIG. 12); format: cell-based; conditions: TRAIL alone or the same doses of C12 without TRAIL
# Description: FIG. 12. (C12) promotes the TRAIL-mediated killing of cancer cells, a), c) Western blot analysis of PARP cleavage in cancer or normal cells treated for 3 h with TRAIL, (C12) or a combination of both, as indicated, b), d) XTT-based assay monitoring the viability of cancer and normal cells grown for 18 h in media containing TRAIL and the indicated doses of (C12). Cell survival was ˜100% in control samples (untreated cells) as well as in samples incubated with TRAIL alone or the same doses of (C12) without TRAIL.
# Cancer and normal cell culture. Lung cancer cell line A549 and colon cancer cell line HT29 were purchased from ATCC. Breast cancer cell line MDA-MB-468 was received from J. C. Reed (The Burnham Institute, La Jolla, Calif.). […]
# as §1
molecule,measurement,setting,value
CCCCCCCCCC1(CC(=O)N[C@H]2CCOC2=O)N=N1 [Compound 15],synergistic effects on TRAIL-induced apoptosis in cancer cells,[1]; compared with bortezomib,comparable with those for an anti-cancer agent bortezomib
same,toxicity against TRAIL-treated cancer cells,[1]; in the presence of TRAIL,exhibited toxicity
same,sensitization of cancerous cells to TRAIL-mediated apoptosis,[2],strongly sensitize
same,PARP cleavage in macrophages,"[3]; Western blot, FIG. 13b",did not induce
same,eIF2α phosphorylation in macrophages,"[3]; Western blot, FIG. 13b",induced eIF2α phosphorylation in a similar fashion
same,p38 phosphorylation in macrophages,"[3]; Western blot, FIG. 13b",did not induce
same,toxicity to macrophages,[3]; bone marrow-derived macrophages,nontoxic
same,blocking LPS-induced re-synthesis of IκBα,"[3]; macrophages activated by LPS, FIG. 13c",equally effective
same,"toxicity to human hepatocytes, compound alone or in combination with TRAIL",[4]; hepatocytes from normal donors,non-toxic
[N-]=[N+]=NCCCCCCCCCC(=O)CC(=O)N[C@H]1CCOC1=O [Compound 13],sensitization of cancerous cells to TRAIL-mediated apoptosis,[2],strongly sensitize
CCCCCCCCCC(=O)CC(=O)N[C@@H]1CCOC1=O [Compound 2],"cell growth and viability, compound alone","[5]; C12 1 μM or 25 μM, C12R 25 μM, no TRAIL",practically unchanged
same,"cell growth and viability, combination with TRAIL",[5]; TRAIL (50 ng/ml) and C12R (25 μM),practically unchanged
same,induction of sXBP1 / activation of the UPR,[6],ineffective
"TRAIL: recombinant human tumor necrosis factor-related apoptosis-inducing ligand, purchased from R&D System","viability and growth, TRAIL alone",[5]; TRAIL 50 ng/ml,did not significantly affect
same,Cell survival,[7],~100%
same,"viability of normal human hepatocytes, TRAIL alone",[4]; FIG. 8B,unchanged
"CC(C)C[C@H](NC(=O)[C@H](Cc1ccccc1)NC(=O)c1cnccn1)B(O)O [Bor, bortezomib, reference compound]",sensitivity of A549 cells to TRAIL in the presence of compound,[5]; FIG. 8A,comparable increase in sensitivity
same,toxicity and apoptosis in hepatocytes in the presence of TRAIL,[4]; FIG. 8B,substantially enhanced
same,"toxicity toward hepatocytes, drug alone",[4]; FIG. 8B,relatively low levels of toxicity
[N-]=[N+]=NCCCCCCCCCC1(CC(=O)N[C@H]2CCOC2=O)N=N1 [Compound 16],sensitization of cancerous cells to TRAIL-mediated apoptosis,[2],strongly sensitize
